Results published in patent publication US20240092784A1, “CONDENSED HETEROCYCLIC COMPOUND” (NISSAN CHEMICAL CORPORATION, priority 2020, published 2024).

Target: human SPR (Homo sapiens (Human), UniProt P35270)
Experiment: Evaluation Example 2: Measurement of human SPR inhibitory activity (seven concentrations, sepiapterin absorbance at 420 nm)
Type: biochemical
Conditions: sepiapterin absorbance, Table 41, read-out: concentration at 50% inhibition of human SPR (IC50)
Procedure, shortened: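 His-tagged full-length human SPR (1-261) was expressed in E. coli and the tag removed. Enzyme at 150 ng/mL in 100 mM Tris-HCl pH 7.5/0.01% BSA was mixed with compound (0.14–100 nM, seven points), 120 μM sepiapterin and 160 μM NADPH, both as added-solution concentrations. After 240 min at room temperature, remaining sepiapterin was read at 420 nm to give percent inhibition.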

human SPR, sequence (P35270 whole entry): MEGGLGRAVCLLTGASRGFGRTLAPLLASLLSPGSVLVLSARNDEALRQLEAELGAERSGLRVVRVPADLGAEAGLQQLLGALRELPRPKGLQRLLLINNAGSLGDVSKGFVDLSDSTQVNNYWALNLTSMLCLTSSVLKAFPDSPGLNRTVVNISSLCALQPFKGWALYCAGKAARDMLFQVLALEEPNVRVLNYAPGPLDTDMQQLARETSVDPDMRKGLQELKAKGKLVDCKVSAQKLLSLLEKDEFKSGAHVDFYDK

`Cc1nn2c(O)c(C(=O)NC3CC3)c(=O)n(CC(C)C)c2c1/C=C/C(=O)N1CCN(CC2CC(F)(F)C2)C[C@@H]1C` [Synthesis Example 703, (S,E)-N-Cyclopropyl-3-(3-(4-((3,3-difluorocyclobutyl)methyl)-2-methylpiperazin-1-yl)-3-oxoprop-1-en-1-yl)-7-hydroxy-4-isobutyl-2-methyl-5-oxo-4,5-dihydropyrazolo[1,5-a]pyrimidine-6-carboxamide] and `Cc1nn2c(O)c(C(=O)NC3CC3)c(=O)n(CC(C)C)c2c1/C=C/C(=O)N1CCN(CC2CC(F)(F)C2)C[C@H]1C` [Synthesis Example 704, (R,E)-N-Cyclopropyl-3-(3-(4-((3,3-difluorocyclobutyl)methyl)-2-methylpiperazin-1-yl)-3-oxoprop-1-en-1-yl)-7-hydroxy-4-isobutyl-2-methyl-5-oxo-4,5-dihydropyrazolo[1,5-a]pyrimidine-6-carboxamide] are within 1.5-fold of each other in IC50: 1.44 nM for the first, 1.52 nM for the second.

Compared with `Cc1nn2c(O)c(C(=O)NC3CC3)c(=O)n(CC(C)C)c2c1/C=C/C(=O)N1CCc2cnccc21` [Synthesis Example 705, (E)-N-Cyclopropyl-3-(3-(2,3-dihydro-1H-pyrrolo[3,2-c]pyridin-1-yl)-3-oxoprop-1-en-1-yl)-7-hydroxy-4-isobutyl-2-methyl-5-oxo-4,5-dihydropyrazolo[1,5-a]pyrimidine-6-carboxamide], `CC(C)Cn1c(=O)c(C(=O)NC2CC2)c(O)n2ncc(/C=C/C(=O)N3CCc4ccccc43)c12` [Synthesis Example 725, (E)-N-Cyclopropyl-7-hydroxy-3-(3-(indolin-1-yl)-3-oxoprop-1-en-1-yl)-4-isobutyl-5-oxo-4,5-dihydropyrazolo[1,5-a]pyrimidine-6-carboxamide] is 2.3-fold higher in IC50: 1.58 nM for the first, 3.61 nM for the second. The first is the more potent here.

`Cc1nn2c(O)c(C(=O)NC3CC3)c(=O)n(CC(C)C)c2c1/C=C/C(=O)N1CCOCC12CC2` [Synthesis Example 706, (E)-N-Cyclopropyl-7-hydroxy-4-isobutyl-2-methyl-5-oxo-3-(3-oxo-3-(7-oxa-4-azaspiro[2.5]octan-4-yl)prop-1-en-1-yl)-4,5-dihydropyrazolo[1,5-a]pyrimidine-6-carboxamide] and `CC(C)Cn1c(=O)c(C(=O)NC2CC2)c(O)n2ncc(/C=C/C(=O)N3CCCC34CC4)c12` [Synthesis Example 721, (E)-N-Cyclopropyl-7-hydroxy-4-isobutyl-5-oxo-3-(3-oxo-3-(4-azaspiro[2.4]heptan-4-yl)prop-1-en-1-yl)-4,5-dihydropyrazolo[1,5-a]pyrimidine-6-carboxamide] are within 1.5-fold of each other in IC50: 0.82 nM for the first, 1.05 nM for the second.

`CCN1CCN(C(=O)/C=C/c2c(C)nn3c(O)c(C(=O)NC4CC4)c(=O)n(CC(C)C)c23)[C@@H](C)C1` [Synthesis Example 707, (S,E)-N-Cyclopropyl-3-(3-(4-ethyl-2-methylpiperazin-1-yl)-3-oxoprop-1-en-1-yl)-7-hydroxy-4-isobutyl-2-methyl-5-oxo-4,5-dihydropyrazolo[1,5-a]pyrimidine-6-carboxamide] and `CC(C)Cn1c(=O)c(C(=O)NC2CC2)c(O)n2ncc(/C=C/C(=O)N3CCN(C)C[C@@H]3C)c12` [Synthesis Example 713, (S,E)-N-Cyclopropyl-3-(3-(2,4-dimethylpiperazin-1-yl)-3-oxoprop-1-en-1-yl)-7-hydroxy-4-isobutyl-5-oxo-4,5-dihydropyrazolo[1,5-a]pyrimidine-6-carboxamide] are within 1.5-fold of each other in IC50: 0.84 nM for the first, 0.96 nM for the second.

`CC(C)Cn1c(=O)c(C(=O)NC2CC2)c(O)n2ncc(/C=C/C(=O)N3C[C@H]4COC[C@H]4C3)c12` [Synthesis Example 708, N-Cyclopropyl-7-hydroxy-4-isobutyl-5-oxo-3-((E)-3-oxo-3-((3aR,6aS)-tetrahydro-1H-furo[3,4-c]pyrrol-5(3H)-yl)prop-1-en-1-yl)-4,5-dihydropyrazolo[1,5-a]pyrimidine-6-carboxamide] and `CC(C)Cn1c(=O)c(C(=O)NC2CC2)c(O)n2ncc(/C=C/C(=O)N3C[C@@H](F)[C@@H](F)C3)c12` [Synthesis Example 722, N-Cyclopropyl-3-((E)-3-(cis-3,4-difluoropyrrolidin-1-yl)-3-oxoprop-1-en-1-yl)-7-hydroxy-4-isobutyl-5-oxo-4,5-dihydropyrazolo[1,5-a]pyrimidine-6-carboxamide] are within 1.5-fold of each other in IC50: 0.74 nM for the first, 0.81 nM for the second.

`CC(C)Cn1c(=O)c(C(=O)NC2CC2)c(O)n2ncc(/C=C/C(=O)N(C)Cc3cnccn3)c12` [Synthesis Example 709, (E)-N-Cyclopropyl-7-hydroxy-4-isobutyl-3-(3-(methyl(pyrazin-2-ylmethyl)amino)-3-oxoprop-1-en-1-yl)-5-oxo-4,5-dihydropyrazolo[1,5-a]pyrimidine-6-carboxamide] and `CC(C)Cn1c(=O)c(C(=O)NC2CC2)c(O)n2ncc(/C=C/C(=O)N(C)Cc3ccccn3)c12` [Synthesis Example 710, (E)-N-Cyclopropyl-7-hydroxy-4-isobutyl-3-(3-(methyl(pyridin-2-ylmethyl)amino)-3-oxoprop-1-en-1-yl)-5-oxo-4,5-dihydropyrazolo[1,5-a]pyrimidine-6-carboxamide] are within 1.5-fold of each other in IC50: 0.85 nM for the first, 1.01 nM for the second.

`CC(C)Cn1c(=O)c(C(=O)NC2CC2)c(O)n2ncc(/C=C/C(=O)N(C)Cc3ncccn3)c12` [Synthesis Example 711, (E)-N-Cyclopropyl-7-hydroxy-4-isobutyl-3-(3-(methyl(pyrimidin-2-ylmethyl)amino)-3-oxoprop-1-en-1-yl)-5-oxo-4,5-dihydropyrazolo[1,5-a]pyrimidine-6-carboxamide] and `CC(C)Cn1c(=O)c(C(=O)NC2CC2)c(O)n2ncc(/C=C/C(=O)N(C)Cc3cccnc3)c12` [Synthesis Example 712, (E)-N-Cyclopropyl-7-hydroxy-4-isobutyl-3-(3-(methyl(pyridin-3-ylmethyl)amino)-3-oxoprop-1-en-1-yl)-5-oxo-4,5-dihydropyrazolo[1,5-a]pyrimidine-6-carboxamide] are within 1.5-fold of each other in IC50: 1.2 nM for the first, 1.19 nM for the second.

First: CC(C)Cn1c(=O)c(C(=O)NC2CC2)c(O)n2ncc(/C=C/C(=O)N3CCN(CC4CC(F)(F)C4)CC3)c12 [Synthesis Example 714, (E)-N-Cyclopropyl-3-(3-(4-((3,3-difluorocyclobutyl)methyl)piperazin-1-yl)-3-oxoprop-1-en-1-yl)-7-hydroxy-4-isobutyl-5-oxo-4,5-dihydropyrazolo[1,5-a]pyrimidine-6-carboxamide]
Second: CC(C)Cn1c(=O)c(C(=O)NC2CC2)c(O)n2ncc(/C=C/C(=O)N3CCN(C4CC(F)(F)C4)C[C@H]3C)c12 [Synthesis Example 715, (R,E)-N-Cyclopropyl-3-(3-(4-(3,3-difluorocyclobutyl)-2-methylpiperazin-1-yl)-3-oxoprop-1-en-1-yl)-7-hydroxy-4-isobutyl-5-oxo-4,5-dihydropyrazolo[1,5-a]pyrimidine-6-carboxamide]
The IC50 of the first is 2-fold higher: 2.54 nM for the first, 1.28 nM for the second. The second is the more potent here.

`CC(C)Cn1c(=O)c(C(=O)NC2CC2)c(O)n2ncc(/C=C/C(=O)N3C[C@@H](C)OC[C@H]3C)c12` [Synthesis Example 716, N-Cyclopropyl-3-((E)-3-((2R,5R)-2,5-dimethylmorpholino)-3-oxoprop-1-en-1-yl)-7-hydroxy-4-isobutyl-5-oxo-4,5-dihydropyrazolo[1,5-a]pyrimidine-6-carboxamide] and `CC(C)Cn1c(=O)c(C(=O)NC2CC2)c(O)n2ncc(/C=C/C(=O)N3C[C@H](C)OC[C@@H]3C)c12` [Synthesis Example 717, N-Cyclopropyl-3-((E)-3-((2S,5S)-2,5-dimethylmorpholino)-3-oxoprop-1-en-1-yl)-7-hydroxy-4-isobutyl-5-oxo-4,5-dihydropyrazolo[1,5-a]pyrimidine-6-carboxamide] are within 1.5-fold of each other in IC50: 0.88 nM for the first, 0.78 nM for the second.

First: CC(C)Cn1c(=O)c(C(=O)NC2CC2)c(O)n2ncc(/C=C/C(=O)N3C[C@H](C)OC[C@H]3C)c12 [Synthesis Example 718, N-Cyclopropyl-3-((E)-3-((2S,5R)-2,5-dimethylmorpholino)-3-oxoprop-1-en-1-yl)-7-hydroxy-4-isobutyl-5-oxo-4,5-dihydropyrazolo[1,5-a]pyrimidine-6-carboxamide]
Second: CC(C)Cn1c(=O)c(C(=O)NC2CC2)c(O)n2ncc(/C=C/C(=O)N3CCN(C4CC(F)(F)C4)C[C@@H]3C)c12 [Synthesis Example 726, (S,E)-N-Cyclopropyl-3-(3-(4-(3,3-difluorocyclobutyl)-2-methylpiperazin-1-yl)-3-oxoprop-1-en-1-yl)-7-hydroxy-4-isobutyl-5-oxo-4,5-dihydropyrazolo[1,5-a]pyrimidine-6-carboxamide]
The IC50 of the first is 1.8-fold lower: 0.74 nM for the first, 1.35 nM for the second.

`CC(C)Cn1c(=O)c(C(=O)NC2CC2)c(O)n2ncc(/C=C/C(=O)N3C4CCC3CC(F)(F)C4)c12` [Synthesis Example 719, (E)-N-Cyclopropyl-3-(3-(3,3-difluoro-8-azabicyclo[3.2.1]octan-8-yl)-3-oxoprop-1-en-1-yl)-7-hydroxy-4-isobutyl-5-oxo-4,5-dihydropyrazolo[1,5-a]pyrimidine-6-carboxamide] and `CC(C)Cn1c(=O)c(C(=O)NC2CC2)c(O)n2ncc(/C=C/C(=O)N3CC4CCC(C3)C4(F)F)c12` [Synthesis Example 720, (E)-N-Cyclopropyl-3-(3-(8,8-difluoro-3-azabicyclo[3.2.1]octan-3-yl)-3-oxoprop-1-en-1-yl)-7-hydroxy-4-isobutyl-5-oxo-4,5-dihydropyrazolo[1,5-a]pyrimidine-6-carboxamide] are within 1.5-fold of each other in IC50: 0.77 nM for the first, 1.03 nM for the second.

`CC(C)Cn1c(=O)c(C(=O)NC2CC2)c(O)n2ncc(/C=C/C(=O)N3CCc4cncnc43)c12` [Synthesis Example 724, (E)-N-Cyclopropyl-3-(3-(5,6-dihydro-7H-pyrrolo[2,3-d]pyrimidin-7-yl)-3-oxoprop-1-en-1-yl)-7-hydroxy-4-isobutyl-5-oxo-4,5-dihydropyrazolo[1,5-a]pyrimidine-6-carboxamide] and `CC(C)Cn1c(=O)c(C(=O)NC2CC2)c(O)n2ncc(/C=C/C(=O)N3CCC[C@H]3c3ccccc3)c12` [Synthesis Example 727, (S,E)-N-Cyclopropyl-7-hydroxy-4-isobutyl-5-oxo-3-(3-oxo-3-(2-phenylpyrrolidin-1-yl)prop-1-en-1-yl)-4,5-dihydropyrazolo[1,5-a]pyrimidine-6-carboxamide] are within 1.5-fold of each other in IC50: 1.03 nM for the first, 1.34 nM for the second.
